Experimental data as given in ChEMBL document CHEMBL1157539, “Thousands of chemical starting points for antimalarial lead identification” (Nature, 2010).

Tested on: Plasmodium falciparum
Test: GSK_TCMDC: Inhibition of Plasmodium falciparum 3D7 in whole erythrocytes, using parasite LDH activity as an index of growth.
Format: functional, organism-based
Details: Plasmodium falciparum, 3D7

Row | SMILES | XC50 [nM]
1 | COc1cccc2c(N/N=C/c3ccc([N+](=O)[O-])cc3)ccnc12 | 888
2 | CCN(CC)CCN(Cc1ccc(-c2ccc(C(F)(F)F)cc2)nc1)C(=O)Cn1cc(Cc2cnn(C)c2)c(=O)n2nc(-c3ccccc3)cc12 | 991
3 | CCN(CC)CCN(Cc1ccc(-c2ccc(C(F)(F)F)cc2)cc1)C(=O)Cn1c(CCc2cc(F)cc(F)c2F)nc(=O)c2ccccc21 | 756
4 | CC(=O)Nc1ccc(Nc2c3ccccc3nc3ccccc23)cc1 | 1020
5 | CN(CC(=O)N1CCN(S(=O)(=O)c2cccc(Cl)c2)CC1CN1CCCC1)c1ccc(Cl)c(Cl)c1 (stereo not given) | 1240
6 | CCOc1cc2c(cc1S(=O)(=O)c1ccc(COc3ccc(C(F)(F)F)cc3)cc1)CCN(C)CC2 | 1020
7 | Nc1nc(N)c2c(ccc3c2ccn3Cc2cccc(F)c2)n1 | 3.2
8 | COc1cc(C)c(C(O)CNC(C)CCc2ccccc2)cc1C (stereo not given) | 730
9 | O=C(Nc1cccc(Cl)c1Cl)NC1CCN(Cc2cccc(O)c2)CC1 | 799
10 | O=C(NCC1CC1)C1CCN(C(c2ccccc2)c2nc3ccccc3s2)CC1 (stereo not given) | 1020
11 | Cn1cnc(CCNC(=O)c2cccc(-c3cccc(-c4nc5cc(C(F)(F)F)ccc5[nH]4)c3)c2)c1 | 700
12 | COc1cccc(-c2[nH]c3ccccc3c2CN2CCC(c3c(C)cccc3C)CC2)c1 | 1020
13 | O=C(NCc1ccccc1F)c1ccc(N2CCC(NCc3cccc(-n4cccn4)c3)CC2)cc1 | 1730
14 | CN1CCC(C(=O)Nc2ccc(-c3ccc(-c4nc5cc(C(F)(F)F)ccc5[nH]4)s3)cc2)CC1 | 987
15 | Cc1cccc2nc(-c3ccc(-c4ccc(CN5CCCC(N)C5)cc4)cc3)[nH]c12 (stereo not given) | 350
16 | Cc1nc(N)nc(N)c1CCCOc1ccccc1Cl | 224
17 | CN1CCc2ccc(NC(=O)Nc3ccc(-c4ccccc4)cc3)cc2C1 | 511
18 | CS(=O)(=O)c1ccc(CCNCc2ccc(-c3ccc(CNC4Cc5ccccc5C4)cc3)nc2)cc1 | 757
19 | COc1cc2nc(Nc3ccc(Oc4ccccc4)cc3)nc(Nc3ccc(Oc4ccccc4)cc3)c2cc1OC | 934
20 | Cc1cc(NCC2CCN(CC3CCCCC3)C2)nc(Nc2ccc(Cl)cc2)n1 (stereo not given) | 739
21 | O=C(Nc1ccc(F)cc1)NC1CCN(c2ccnc3cc(Cl)ccc23)CC1 | 408
22 | Cc1ccccc1C1CCN(C2CCC(NC(=O)c3ccc(-c4cccc(C(F)(F)F)c4)o3)CC2)CC1 (stereo not given) | 346
23 | O=C(NC1CC1)c1ccc(N2CCC(Cc3ccccc3)CC2)nc1 | 761
24 | O=C(c1cc(C(=O)NC2CCCCC2)c(=O)n(C2CCCCC2)c1)c1cc(F)ccc1O | 627

Row | SMILES | XC50 [nM]
25 | COc1ccc2nc(-c3ccccc3)cc(NCCN(C)C)c2c1 | 731
26 | COCc1cc(C)nc2sc(C(=O)Nc3cc(C(C)(C)C)ccc3O)c(N)c12 | 714
27 | O=C(/C=C/c1ccc2ccccc2c1)NCC1(c2ccc(-c3ccccc3)cc2)CCOCC1 | 1520
28 | CCc1c(CCNCCCCCCNCCc2ccc(Br)cc2)ccc(O)c1O | 903
29 | Cc1ccc2[nH]cc(/C=C/C(=O)NC3CCC(CCN4CCc5ccc(C#N)cc5CC4)CC3)c2c1 (stereo not given) | 916
30 | c1csc(-c2nc(N3CCCCC3)ncc2-c2ccsc2)n1 | 136
31 | CCOc1cc(Cc2cnc(N)nc2N)cc(Br)c1OC | 1440
32 | Oc1ccc(CN2Cc3ccccc3OC3(CCN(Cc4c[nH]c5cnccc45)CC3)C2)cc1 | 1170
33 | CN1CCN(CC(=O)Nc2cccc(-c3cccc(-c4nc5cc(C(F)(F)F)ccc5[nH]4)c3)c2)CC1 | 372
34 | CCn1cc(C(=O)O)c(=O)c2cc(F)c(N3CCN(S(=O)(=O)c4ccc(N)cc4)CC3)cc21 | 922
35 | O=C(N[C@H]1CCN(Cc2ccc(OCCN3CCNCC3)c(Br)c2)C1)c1ccc(Cl)c(Cl)c1 | 484
36 | COc1cc2nc(N3CCC(CNC(=O)c4ccc(-c5ccccc5)cc4)CC3)nc(N)c2cc1OC | 574
37 | CCCc1cc(NCc2ccncc2)nc(Nc2ccc(F)cc2)n1 | 1120
38 | O=S(=O)(NCCN1CCCC1)c1ccc(-c2ccc(CN3Cc4ccccc4C3)cc2)s1 | 930
39 | COc1ccc(NC(=O)N2CCc3ccc(OCCN(C(C)C)C(C)C)cc32)cc1C(F)(F)F | 969
40 | c1ccc2c(CNc3nc(NCC4CCCCC4)nc4[nH]cnc34)cccc2c1 | 888
41 | O=C(Nc1ccc(-c2cccc(-c3nc4ccccc4[nH]3)c2)cc1)Nc1ccc(Cl)c(Cl)c1 | 459
42 | CCC(C)(C)NC(=O)C(c1cccc(OC)c1)N(C(=O)CNC(=O)c1cccs1)c1ccc2c(c1)OCCO2 (stereo not given) | 828
43 | Cc1c(CNCCCNc2nc3ccncc3[nH]2)sc(Br)c1Br | 1040
44 | CCOc1ncccc1CN1CCC(N2CCc3cc(NC(=O)c4cc(C)on4)ccc32)C1 (stereo not given) | 312
45 | CC(C)(C)c1cc(C(=O)N2CCN(c3ccc(C(F)(F)F)cn3)CC2)n(Cc2ccc(F)cc2)n1 | 978
46 | Cc1cccc(C)c1CNc1nc(N2CCOCC2)cc2c(C)c(C)[nH]c12 | 1240
47 | N#Cc1ccc2[nH]cc(CN3CCC4(CC3)CN(CCNCc3ccccc3)C(=O)O4)c2c1 | 1160
48 | O=C(CCn1cncn1)N1CCCC(c2[nH]c3ccccc3c2-c2ccncc2)C1 (stereo not given) | 800

Row | SMILES | XC50 [nM]
49 | CC(C)NCc1ccc(-c2ccc(CN3CCCC(c4ccccc4)C3)cc2)c(C(=O)NC2Cc3ccccc3C2)c1 (stereo not given) | 991
50 | CS(=O)(=O)Cc1ccc(Nc2nccc(-c3c(-c4cccc(NC(=O)C5CCCCC5)c4)nn4ncccc34)n2)cc1 | 201
51 | COc1cccc2cc(C(=O)N[C@@H](CC(C)C)C(=O)N[C@H](/C=N/N(C)C(=O)OC(C)(C)C)CC(=O)OC(C)(C)C)oc12 | 654
52 | COc1cc2nc(NCCN3CCOCC3)n3nc(-c4ccccc4)nc3c2cc1OC | 215
53 | COc1cc(Nc2ncnc3cc(OC)c(OC)cc23)cc([N+](=O)[O-])c1 | 810
54 | Cn1cccc1C(=O)C(=O)Nc1cccc(-c2ccc(-c3nc4cc(C(F)(F)F)ccc4[nH]3)cc2)c1 | 785
55 | COc1ccc(-c2cccc(NC(=O)c3cccs3)c2)cc1CN1CCCN(C)CC1 | 698
56 | C=CCc1c(C(=O)NCC23CC4CC(CC(C4)C2)C3)nc2ccccc2c1O | 1030
57 | N=c1c2c(n(Cc3cccc(Cl)c3)c3c1CCC3)CCCC2 | 194
58 | CN1CCCN(Cc2cccc(-c3cccc(NC(=O)c4cccc(Cl)c4)c3)c2)CC1 | 889
59 | COC(=O)c1ccc2c(c1)nc(Nc1cccc(F)c1)n2CC(O)c1ccccn1 (stereo not given) | 728
60 | O=C(/C=C/c1ccc(Cl)c(Cl)c1)Nc1cccc(CN2CCC(c3c[nH]c4ccccc34)CC2)c1 | 670
61 | O=C(Nc1cccc(-c2nn3ncccc3c2-c2ccnc(Nc3cccc(-c4cnco4)c3)n2)c1)c1c(F)cccc1F | 166
62 | Cc1cccc2nc(-c3ccc(-c4ccc(NC(=O)CN5CCN(C)CC5)cc4)cc3)[nH]c12 | 785
63 | Cc1cnc(NC(=O)c2cn(-c3ccccc3)nc2-c2cccs2)s1 | 945
64 | Cc1c(S(=O)(=O)Nc2ccc3ccn(CCN(C)C)c3c2)sc2ccc(Cl)cc12 | 921
65 | CCCNCc1ccc(-c2ccc(CN(CCOC)C(=O)CCC(=O)c3ccc(OC)c(F)c3)cc2)nc1 | 683
66 | O=S(=O)(NC1CCN(c2ccnc3cc(Cl)ccc23)C1)c1cccs1 (stereo not given) | 697
67 | CCNc1cc(C)nc(Nc2ccc(NC(=O)Cc3ccc(OC)cc3)cc2)n1 | 1380
68 | O=C(Cc1c[nH]cn1)Nc1ccc(-c2ccc(-c3nc4cc(C(F)(F)F)ccc4[nH]3)s2)cc1 | 657
69 | COc1ccc2ncc(C#N)c(CCN3C4CCC3CC(NCc3ccc5c(n3)NC(=O)CS5)C4)c2c1 (stereo not given) | 810
70 | COc1ccc(CNC2CCN(C)CC2)cc1-c1ccc(S(=O)(=O)NCC2CCCO2)s1 (stereo not given) | 800
